Measurements published in the NIST ThermoML archive (doi:10.1016/j.jct.2008.12.002).
Numbers after ± are expanded uncertainties.

Assay: xn = mol fraction of the nth substance listed
Details: 101 kPa, Liquid, Vibrating tube method

CCCCCCCCOS(=O)(=O)[O-].CCCCn1cc[n+](C)c1 [1-butyl-3-methylimidazolium octyl sulfate] + OCCO
mass density [kg/m3]
Details | 298.15 K | 308.15 K | 318.15 K
x1 = 0.0003 | 1109.9 ± 0.4 | 1102.8 ± 0.4 | 1095.5 ± 0.4
x1 = 0.0008 | 1109.8 ± 0.4 | 1102.6 ± 0.4 | 1095.3 ± 0.4
x1 = 0.0012 | 1109.6 ± 0.4 | 1102.5 ± 0.4 | 1095.2 ± 0.4
x1 = 0.0017 | 1109.5 ± 0.4 | 1102.4 ± 0.4 | 1095.1 ± 0.4
x1 = 0.002 | 1109.4 ± 0.4 | 1102.3 ± 0.4 | 1095 ± 0.4
x1 = 0.0038 | 1108.8 ± 0.4 | 1101.7 ± 0.4 | 1094.4 ± 0.4
x1 = 0.007 | 1107.8 ± 0.4 | 1100.7 ± 0.4 | 1093.4 ± 0.4
x1 = 0.0119 | 1106.3 ± 0.4 | 1099.2 ± 0.4 | 1092 ± 0.4
x1 = 0.0174 | 1104.7 ± 0.4 | 1097.7 ± 0.4 | 1090.5 ± 0.4
x1 = 0.0258 | 1102.5 ± 0.4 | 1095.5 ± 0.4 | 1088.2 ± 0.4
x1 = 0.0508 | 1096.8 ± 0.4 | 1089.8 ± 0.4 | 1082.6 ± 0.4
x1 = 0.19 | 1079.9 ± 0.4 | 1072.9 ± 0.4 | 1065.9 ± 0.4
x1 = 0.301 | 1074.2 ± 0.5 | 1067.3 ± 0.5 | 1060.4 ± 0.4
x1 = 0.3712 | 1072.2 ± 0.5 | 1065.3 ± 0.5 | 1058.4 ± 0.5
x1 = 0.4591 | 1070.5 ± 0.5 | 1063.6 ± 0.5 | 1056.8 ± 0.5
x1 = 0.5435 | 1069.4 ± 0.6 | 1062.7 ± 0.6 | 1055.9 ± 0.6
x1 = 0.6225 | 1068.7 ± 0.7 | 1062.1 ± 0.7 | 1055.4 ± 0.6
x1 = 0.7366 | 1068.2 ± 0.7 | 1061.5 ± 0.7 | 1054.9 ± 0.7
x1 = 0.8073 | 1067.9 ± 0.8 | 1061.3 ± 0.8 | 1054.8 ± 0.8
x1 = 0.9007 | 1067.7 ± 0.9 | 1061.2 ± 0.9 | 1054.6 ± 0.9
x1 = 1 | 1067.6 ± 1 | 1061 ± 1 | 1054.5 ± 1

CCCCn1cc[n+](C)c1.F[B-](F)(F)F [1-butyl-3-methylimidazolium tetrafluoroborate] + OCCO
mass density [kg/m3]
Details | 298.15 K | 308.15 K | 318.15 K
x1 = 0.0266 | 1116.7 ± 0.4 | 1109.4 ± 0.4 | 1102.2 ± 0.4
x1 = 0.0766 | 1127.3 ± 0.4 | 1119.9 ± 0.4 | 1112.5 ± 0.4
x1 = 0.1017 | 1131.9 ± 0.4 | 1124.4 ± 0.4 | 1116.9 ± 0.4
x1 = 0.1678 | 1142.4 ± 0.4 | 1134.7 ± 0.4 | 1126.9 ± 0.4
x1 = 0.2425 | 1152.1 ± 0.4 | 1144.1 ± 0.4 | 1136.2 ± 0.4
x1 = 0.3825 | 1166 ± 0.4 | 1157.8 ± 0.4 | 1149.7 ± 0.4
x1 = 0.4389 | 1170.5 ± 0.4 | 1162.4 ± 0.4 | 1154.3 ± 0.4
x1 = 0.5207 | 1176.4 ± 0.4 | 1168.3 ± 0.4 | 1160.3 ± 0.4
x1 = 0.6049 | 1181.7 ± 0.4 | 1173.7 ± 0.4 | 1165.8 ± 0.4
x1 = 0.7196 | 1188.1 ± 0.4 | 1180.4 ± 0.4 | 1172.7 ± 0.4
x1 = 0.8106 | 1192.7 ± 0.4 | 1185.1 ± 0.4 | 1177.6 ± 0.4
x1 = 0.8978 | 1196.8 ± 0.4 | 1189.4 ± 0.4 | 1182.1 ± 0.4
x1 = 1 | 1201.2 ± 0.4 | 1194 ± 0.4 | 1186.9 ± 0.4

CCCCCCCC[n+]1ccn(C)c1.F[B-](F)(F)F [1-methyl-3-octylimidazolium tetrafluoroborate] + OCCO
mass density [kg/m3]
Details | 298.15 K | 308.15 K | 318.15 K
x1 = 0.0027 | 1109.9 ± 0.4 | 1102.8 ± 0.4 | 1095.7 ± 0.3
x1 = 0.0046 | 1109.7 ± 0.4 | 1102.7 ± 0.4 | 1095.4 ± 0.3
x1 = 0.0081 | 1109.5 ± 0.4 | 1102.4 ± 0.4 | 1095.2 ± 0.4
x1 = 0.0151 | 1109 ± 0.4 | 1101.9 ± 0.4 | 1094.6 ± 0.4
x1 = 0.0316 | 1108 ± 0.4 | 1100.8 ± 0.4 | 1093.4 ± 0.4
x1 = 0.0614 | 1106.4 ± 0.4 | 1099.2 ± 0.4 | 1091.7 ± 0.4
x1 = 0.083 | 1105.4 ± 0.4 | 1098 ± 0.4 | 1090.6 ± 0.4
x1 = 0.1341 | 1103.5 ± 0.4 | 1096 ± 0.4 | 1088.6 ± 0.4
x1 = 0.2026 | 1101.7 ± 0.4 | 1094 ± 0.4 | 1086.8 ± 0.4
x1 = 0.273 | 1100.4 ± 0.5 | 1092.7 ± 0.5 | 1085.3 ± 0.5
x1 = 0.4125 | 1099.2 ± 0.6 | 1091.5 ± 0.5 | 1084.2 ± 0.5
x1 = 0.5198 | 1099 ± 0.6 | 1091.3 ± 0.6 | 1084.1 ± 0.6
x1 = 0.6306 | 1099.3 ± 0.7 | 1091.6 ± 0.7 | 1084.5 ± 0.7
x1 = 0.7919 | 1100.3 ± 0.9 | 1092.6 ± 0.8 | 1085.5 ± 0.8
x1 = 0.9583 | 1101.6 ± 1 | 1094 ± 1 | 1087.1 ± 1
x1 = 1 | 1101.9 ± 1.1 | 1094.32 ± 1 | 1087.5 ± 1
